Assay results taken from patent publication US20250228823A1, “PHARMACEUTICAL COMPOSITIONS COMPRISING (3-(1-(1H-IMIDAZOL-4-YL)ETHYL)-2-METHYLPHENYL)METHANOL” (Allergan, Inc., priority 2010, published 2025).

Assays:
[1] = target: T1, bovine a1A receptor (Bos taurus, UniProt P18130); assay: cell-based; settings: for a1A efficacy: FLIPR agonist assay, HEK 293 cells, norepinephrine is the standard full agonist
T1 sequence (P18130 1-466): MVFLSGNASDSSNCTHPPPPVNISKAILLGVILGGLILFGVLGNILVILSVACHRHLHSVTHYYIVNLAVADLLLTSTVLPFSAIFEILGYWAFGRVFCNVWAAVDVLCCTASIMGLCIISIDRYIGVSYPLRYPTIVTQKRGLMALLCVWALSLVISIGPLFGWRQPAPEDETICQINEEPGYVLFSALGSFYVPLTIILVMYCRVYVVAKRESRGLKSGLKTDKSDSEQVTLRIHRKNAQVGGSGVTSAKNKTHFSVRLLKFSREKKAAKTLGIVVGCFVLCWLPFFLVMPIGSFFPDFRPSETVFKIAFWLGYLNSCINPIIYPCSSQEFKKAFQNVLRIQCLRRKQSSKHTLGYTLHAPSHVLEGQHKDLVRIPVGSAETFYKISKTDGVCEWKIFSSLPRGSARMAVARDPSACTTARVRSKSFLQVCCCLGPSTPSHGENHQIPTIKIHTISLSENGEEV
Protocol: (§1) HEK 293 cells stably expressing the bovine a1A receptor, human alpha 2A receptor and the chimeric G protein Gai5, are plated in poly-D-lysine coated 384-well plates at 20,000-40,000 cells per well and grown overnight in DMEM supplemented with 10% fetal bovine serum. For FLIPR (fluorometric image plate reader) evaluation, cells are washed twice with HBSS/HEPES Buffer (1× Hanks Buffered Salt Solution, 20 mM HEPES, pH 7.4) prior to the addition of Fluo-4-AM (4 uM Fluo-4-AM, 0.04% pluronic acid in HBSS/HEPES Buffer), a calcium-sensitive dye. Cells are loaded with dye for 40 minutes at 37° C., then washed 4 times with HBSS/HEPES Buffer. For both the agonist and antagonist assay, the test compounds are tested between 0.64 nM-10,000 nM. For an agonist assay, the reaction is initiated by the addition of the appropriate dilutions of compounds and the transient calcium signal captured. The peak height of the calcium curve is determined and utilized for calculation of EC50 and efficacy using ActivityBase. Norepinephrine is the standard full agonist used for evaluating alpha-1 and alpha-2 receptor activity.

[2] = target: T2, human alpha 2A receptor (Homo sapiens, UniProt P08913); settings: FLIPR agonist assay, HEK 293 cells with chimeric G protein; norepinephrine is the standard full agonist
T2 sequence (P08913 1-465): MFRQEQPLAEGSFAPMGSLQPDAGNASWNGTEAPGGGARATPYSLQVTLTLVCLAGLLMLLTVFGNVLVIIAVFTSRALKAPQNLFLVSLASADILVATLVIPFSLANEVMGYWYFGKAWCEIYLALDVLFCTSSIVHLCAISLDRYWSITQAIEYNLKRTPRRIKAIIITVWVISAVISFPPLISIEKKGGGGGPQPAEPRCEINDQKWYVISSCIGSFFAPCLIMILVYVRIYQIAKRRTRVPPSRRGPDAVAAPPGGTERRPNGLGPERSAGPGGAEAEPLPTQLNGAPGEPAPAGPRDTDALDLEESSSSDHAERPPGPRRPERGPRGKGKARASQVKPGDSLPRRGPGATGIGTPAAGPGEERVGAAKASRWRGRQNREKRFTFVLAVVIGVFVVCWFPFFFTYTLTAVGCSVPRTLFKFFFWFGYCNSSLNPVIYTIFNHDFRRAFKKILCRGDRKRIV
Protocol: as §1

[3] = tested on: Normotensive male Dutch-Belted rabbits (IOP); settings: for IOP effect in the contralateral eye: single topical drop onto right eye, untreated eye
Protocol: The experimental animals used, were Normotensive male Dutch-Belted rabbits (Myrtle's Rabbitry) over 6 months in age (n=4/compound/dose screened). A single drop (50 μl) of the drug formulation, was administered topically by pipette onto the right eye (treated eye) at approximately 0700 hours. IOP of the rabbits (treated and untreated eyes) was measured 0 hours before and at 0.5, 1, 2, 3, 4, 6 and 8 hours after topical eyedrop administration. IOP at the time of eyedrop administration (0 hours) was used as a baseline value. Prior to the tonometric measurements, 0.05% proparacaine (50 μl) was administered to each eye. Tonometric IOP measurements were obtained with a Mentor Pneumontonmeter. Additionally, all studies were masked. At least 1 week of wash-out time was allowed for each rabbit between dosings. All animals were examined for sedation, ocular irritation, and changes in pupil diameter throughout the course of the experiments.

Row | SMILES | EC50 [1] [nM] | a1A efficacy [1] | a2A efficacy [2] | IOP effect at 6 hrs in the treated eye ([3]; 0.15%, single topical drop, DB Rabbits, 6 hrs) | IOP effect in the contralateral eye ([3]; DB Rabbits) | duration of IOP lowering in the treated eye ([3]; 0.15% concentration, single topical drop (50 μl), DB Rabbits) | IOP lowering efficacy compared with brimonidine ([3]; FIG. 1) | intraocular pressure duration compared with brimonidine ([3]; FIG. 1)
1 | Brc1c(NC2=NCCN2)ccc2nccnc12 [Brimonidine, reference compound] | 600 to 2400 | 0.3 | 0.95 | minimal | strong contralateral effect | – | – | –
2 | Cc1c(CO)cccc1[C@H](C)c1c[nH]cn1 [Compound 1, (S)-[3-(1-(1H-imidazol-4-yl)ethyl)-2-methylphenyl] methanol] | 340 to 2400 | 0.7 | 0.9 | – | very little effect | at least 6 hours | comparable efficacy to brimonidine | longer intraocular pressure duration than brimonidine
